Reference: patent publication US6964759B2, “Formulations containing an anticholinergic drug for the treatment of chronic obstructive pulmonary disease” (Chiesi Farmaceutici S.p.A., priority 2000, dated 2005)

Legend:
[1] = Aerodynamic particle size distribution and delivery performance, Andersen Cascade Impactor; type: physicochemical
Method: The aerodynamic particle size distribution of each tested formulation was characterized using a Multistage Cascade Impactor according to the procedure described in European Pharmacopoeia 2nd edition, 1995, part V.5.9.1, pages 15-17. In this specific case, an Andersen Cascade Impactor (ACI) was used.
Results were obtained as a mean of 3-4 cans. For each device, 5-25 cumulative actuations were carried out after discarding the first 5.
Deposition of the drug on each ACI plate was determined by high pressure liquid chromatography (HPLC). Mean metered dose was calculated from the cumulative deposition in the actuator and ACI (stages); mean delivered dose was calculated from the cumulative deposition in the ACI. Mean respirable dose (fine particle dose) was obtained from the deposition on Stages 3 to filter corresponding to particles ≦4.71 μm, divided by the number of actuations per experiment.
MAD and associated GSD (standard geometric deviation) values were obtained from probit transformation of cumulative percent undersize—log (ACI effective cut-off particle size diameter) and linear regression analysis of the resultant data, (Ph. Eur. Supp 1999).
The use of a metering chamber volume of 100 μl allows a 320 μg strength variant of the 160 μg formulation.
The delivery characteristics of the formulation in cans equipped with standard Bespack BK 360 actuators with 0.3 mm orifice diameter and a metering chamber volume of 50 μl are reported in Table 2. The use of a metering chamber volume of 100 μl allows a 160 μg strength variant of the 80 μg formulation.
The relevant parameters were determined as described in Example 1.

[2] = inhaled single doses of at least 160 μg; cited from earlier work
[3] = nominal dose 20 μg, HFA 134a, 13% ethanol, 1% glycerol
[4] = nominal dose 20 μg, HFA 134a, 13% ethanol, 1% glycerol, 0.3 mm orifice, 50 μl chamber
[5] = nominal dose 40 μg, HFA 134a, 13% ethanol, 1% glycerol
[6] = nominal dose 40 μg, HFA 134a, 13% ethanol, 1% glycerol, 0.3 mm orifice, 50 μl chamber
[7] = nominal dose 80 μg, HFA 134a, 13% ethanol, 1% glycerol
[8] = nominal dose 80 μg, HFA 134a, 13% ethanol, 1% glycerol, 0.3 mm orifice, 50 μl chamber
[9] = nominal dose 80 μg, HFA 134a, 19% ethanol, without the low volatility component
[10] = nominal dose 160 μg, HFA 134a, 13% ethanol, 1% glycerol
[11] = nominal dose 160 μg, HFA 134a, 13% ethanol, 1% glycerol, 0.3 mm orifice, 50 μl chamber
[12] = nominal dose 160 μg, HFA 134a, 19% ethanol, without the low volatility component
[13] = nominal dose 320 μg, HFA 134a, 13% ethanol, 1% glycerol
[14] = nominal dose 320 μg, HFA 134a, 13% ethanol, 1% glycerol, 0.3 mm orifice, 100 μl chamber

Q: Which results are given for `CC(C)[N+]1(C)[C@@H]2CC[C@H]1CC(OC(=O)C(CO)c1ccccc1)C2.[Br-]` (stereo partly drawn) [ipratropium bromide]?
A: MAD ([1]; Example 1 formulations with glycerol, over all nominal doses): 2.2-2.9 μm; MAD ([1]; formulation containing an ethanol level of 19% by weight, nominal doses 80 and 160 μg): 1.2-1.3 μm; GSD [1, 3]: 2.1 ± 0.8; MAD [1, 3]: 2.4 ± 0.3 μm; Respirable fraction [1, 3]: 33.3 ± 3.8%; Delivered dose [1, 4]: 18.8 ± 1.6 µg; Metered dose [1, 4]: 20.6 ± 1.6 µg; Respirable dose ([1]; nominal dose 20 μg, particles less than 4.7 μm, HFA 134a, 13% ethanol, 1% glycerol): 6.8 ± 1.1 µg; GSD [1, 5]: 2.1 ± 0.1; MAD [1, 5]: 2.2 ± 0.1 μm; Respirable fraction [1, 5]: 31.5 ± 3.8%; Delivered dose [1, 6]: 38.7 ± 1.9 µg; Metered dose [1, 6]: 42.2 ± 1.8 µg; Respirable dose ([1]; nominal dose 40 μg, particles less than 4.7 μm, HFA 134a, 13% ethanol, 1% glycerol): 11.7 ± 1.2 µg; GSD [1, 7]: 2.2 ± 0.1; MAD [1, 7]: 2.7 ± 0.3 μm; Respirable fraction [1, 7]: 32.0 ± 6.1%; Delivered dose [1, 8]: 72.7 ± 0.6 µg; Metered dose [1, 8]: 78.5 ± 0.4 µg; Delivered dose [1, 9]: 70.0 ± 1.0 µg; GSD [1, 9]: 4.3 ± 0.4; MAD [1, 9]: 1.2 ± 0.1 μm; Respirable dose [1, 9]: 20.0 ± 1.3 µg; Respirable fraction [1, 9]: 28.7 ± 1.5%; Metered dose ([1]; nominal dose 80 μg, HFA 134a, 19% ethanol, without the low volatility component, 0.3 mm orifice, 50 μl chamber): 76.6 ± 1.6 µg; Respirable dose ([1]; nominal dose 80 μg, particles less than 4.7 μm, HFA 134a, 13% ethanol, 1% glycerol): 23.3 ± 4.5 µg; GSD [1, 10]: 2.3 ± 0.1; MAD [1, 10]: 2.5 ± 0.2 μm; Respirable fraction [1, 10]: 30.4 ± 3.5%; Delivered dose [1, 11]: 149.2 ± 10.7 µg; Metered dose [1, 11]: 161.1 ± 12.5 µg; Delivered dose [1, 12]: 144.2 ± 1.7 µg; GSD [1, 12]: 6.2 ± 0.2; MAD [1, 12]: 1.3 ± 0.2 μm; Respirable dose [1, 12]: 31.4 ± 1.3 µg; Respirable fraction [1, 12]: 21.8 ± 1.1%; Metered dose ([1]; nominal dose 160 μg, HFA 134a, 19% ethanol, without the low volatility component, 0.3 mm orifice, 100 μl chamber): 158.5 ± 2.0 µg; Respirable dose ([1]; nominal dose 160 μg, particles less than 4.7 μm, HFA 134a, 13% ethanol, 1% glycerol): 45.2 ± 2.5 µg; GSD [1, 13]: 2.6 ± 0.1; MAD [1, 13]: 2.9 ± 0.2 μm; Respirable fraction [1, 13]: 25.2 ± 1.2%; Delivered dose [1, 14]: 290.5 ± 1.9 µg; Metered dose [1, 14]: 321.4 ± 2.0 µg; Respirable dose ([1]; nominal dose 320 μg, particles less than 4.7 μm, HFA 134a, 13% ethanol, 1% glycerol): 73.2 ± 3.0 µg; Duration of action [2]: up to 12 hours
